According to the supplement of paper PMC3937590:

Key:
Experiment in all cases: -log10 GI50 (growth inhibition 50%) (-log10(M)); higher = more potent growth inhibition
[1] = system: 600MPE
In short: (§1)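 A value carrying a < qualifier equals the top dose tested. Each compound was tested in triplicate on breast cancer cell lines for 72 hours at nine doses in 1:5 serial dilution, using a luminescence read-out against a time-zero plate. Nonlinear least squares fitting of a Gompertz curve gave GI50, the molar concentration causing the set level of growth inhibition, which is reported as its negative logarithm. The logarithm is base 10.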

[2] = system: AU565
In short: as §1

[3] = system: CAMA1
In short: as §1

[4] = system: HCC1143
In short: as §1

[5] = system: HCC1428
In short: as §1

[6] = system: HCC1569
In short: as §1

[7] = system: HCC1937
In short: as §1

[8] = system: HCC2185
In short: as §1

[9] = system: MDAMB175VII
In short: as §1

[10] = system: MDAMB361
In short: as §1

[11] = system: MX1
In short: as §1

[12] = system: SKBR3
In short: as §1

[13] = system: SUM1315MO2
In short: as §1

[14] = system: SUM159PT
In short: as §1

[15] = system: SUM185PE
In short: as §1

[16] = system: SUM52PE
In short: as §1

[17] = system: T47D
In short: as §1

[18] = system: ZR751
In short: as §1

[19] = system: LY2
In short: as §1

[20] = system: ZR75B
In short: as §1

| Structure (SMILES) | -log10 GI50 [4] | -log10 GI50 [5] | -log10 GI50 [6] | -log10 GI50 [7] | -log10 GI50 [8] | -log10 GI50 [9] | -log10 GI50 [10] | -log10 GI50 [12] | -log10 GI50 [17] | -log10 GI50 [1] | -log10 GI50 [2] | -log10 GI50 [3] | -log10 GI50 [11] | -log10 GI50 [13] | -log10 GI50 [14] | -log10 GI50 [15] | -log10 GI50 [16] | -log10 GI50 [18] | -log10 GI50 [19] | -log10 GI50 [20] |
| --- | --- | --- | --- | --- | --- | --- | --- | --- | --- | --- | --- | --- | --- | --- | --- | --- | --- | --- | --- | --- |
| COc1ncc(-c2ccc3nccc(-c4ccnnc4)c3c2)cc1NS(=O)(=O)c1ccc(F)cc1F | 7.43 | 7.57 | 7.75 | 7.57 | 8.04 | 8.73 | 8.82 | 8.41 | 8.45 | 8.22 | 8.1 | 7.08 | 8.39 | 8.02 | 7.63 | – | 8.46 | 8.09 | 7.94 | 8.31 |
| C[C@@H](Oc1cc(-n2cnc3ccc(CN4CCN(C)CC4)cc32)sc1C(N)=O)c1ccccc1C(F)(F)F | 7.17 | 5.33 | 7.05 | 7.5 | 8.29 | 5.21 | 8.72 | 6.92 | 5.56 | 5.16 | 8.58 | 5.17 | – | 7.52 | 7.49 | 5.71 | 8.2 | 5.16 | 5.8 | 7.06 |
| Nc1[nH]nc2nnc(-c3c(-c4ccccc4)nn4ccccc34)cc12 | 4.6 | 4.56 | < 4 | < 4 | < 4 | 5.08 | 4.67 | < 4 | < 4.48 | 4.65 | < 4.48 | < 4 | < 4.48 | 4.71 | < 4.48 | 4.43 | 4.49 | 5.23 | – | 4.56 |
| O=C1NC(=O)/C(=C/c2ccc3nccc(-c4ccncc4)c3c2)S1 | 6.24 | 6.28 | 5.94 | 6.09 | 6.9 | 6.33 | 5.92 | 6.82 | 6.95 | 6.31 | 6.32 | 5.77 | – | 6.49 | 6.72 | 7.13 | 6.82 | 5.99 | 5.87 | 6.51 |
| C=CCNC1=C2C[C@@H](C)C[C@H](OC)[C@H](O)[C@@H](C)/C=C(\C)[C@H](OC(N)=O)[C@@H](OC)/C=C\C=C(/C)C(=O)NC(=CC1=O)C2=O [17-AAG] | 6.86 | 8.39 | 6.84 | 6.88 | 6.93 | 7.39 | 7.29 | 7.55 | 5.97 | 6.65 | 7.24 | 6.6 | – | 7.72 | 7.46 | 7.47 | 7.79 | 6.83 | 6.99 | 7.27 |
| O=c1cc(-c2ccccc2)oc2cc(O)c(O)c(O)c12 [Baicalein] | 4.15 | 4.41 | 4.33 | 4.46 | 4.3 | 3.96 | < 3.78 | 3.96 | 4.52 | < 3.78 | 4.38 | 4.39 | 4.66 | 4.55 | 3.82 | – | 4.42 | 4.38 | 4.19 | 4.36 |
| COc1cc(Nc2c(C#N)cnc3cc(OCCCN4CCN(C)CC4)c(OC)cc23)c(Cl)cc1Cl [Bosutinib] | 5.31 | 5.43 | 5.76 | 5.84 | 5.3 | 6.07 | 5.9 | 5.41 | – | 5.27 | 5.67 | 5.11 | 6.38 | 6.12 | 5.86 | – | 5.85 | 4.94 | 5.66 | 5.15 |
| O=C(O)C1(C(=O)O)CCC1.[NH2-].[NH2-].[Pt+2] [Carboplatin] | 3.88 | 3.86 | 3.96 | 4.47 | 4.88 | 4.44 | 4.34 | 5 | 4.02 | 3.82 | 4.95 | 3.72 | – | 4.57 | 4.55 | 3.94 | 4.71 | 4.1 | 4.34 | 3.52 |
| N.N.[Cl][Pt][Cl] [Cisplatin] | 5.04 | 4.33 | 5.11 | 5.48 | 5.71 | 5.37 | 5.06 | 4.77 | 5.27 | 4.33 | 5.72 | 4.39 | – | 5.75 | 5.4 | 4.03 | 5.78 | 4.99 | 5.11 | 4.06 |
| COC1=C2C[C@@H](C)C[C@H](OC)[C@H](O)[C@@H](C)/C=C(\C)[C@H](OC(N)=O)[C@@H](OC)/C=C\C=C(/C)C(=O)NC(=CC1=O)C2=O [Geldanamycin] | 7.1 | 7.55 | 7.47 | 7.49 | 7.69 | 7.75 | 7.78 | 7.79 | 7.62 | 7.43 | 7.35 | 7.47 | – | 7.7 | 8.21 | 7.71 | 7.93 | 7.06 | 7.24 | 7.05 |
| CC(=O)O[C@H]1C(=O)[C@@]2(C)[C@H]([C@H](OC(=O)c3ccccc3)[C@]3(O)C[C@H](OC(=O)[C@H](O)[C@@H](NC(=O)c4ccccc4)c4ccccc4)C(C)=C1C3(C)C)[C@]1(OC(C)=O)CO[C@@H]1C[C@@H]2O [Paclitaxel] | 7.8 | 7.58 | 7.95 | 7.81 | 8.22 | 7.74 | 7.79 | 7.94 | 8.02 | 7.51 | 8.14 | 7.95 | – | 8.29 | 8.24 | 6.64 | 8.2 | 7.76 | 7.97 | 7.38 |
| CO[C@H]1C[C@@H]2CC[C@@H](C)[C@@](O)(O2)C(=O)C(=O)N2CCCC[C@H]2C(=O)O[C@H]([C@H](C)C[C@@H]2CC[C@@H](O)[C@H](OC)C2)CC(=O)[C@H](C)/C=C(\C)[C@@H](O)[C@@H](OC)C(=O)[C@H](C)C[C@H](C)/C=C/C=C/C=C/1C [Rapamycin] | 6.27 | 7.29 | 6.7 | 5.91 | 8.79 | 8.43 | 6.22 | 8.09 | 6.36 | 5.12 | 7.62 | 7.82 | 5.77 | 5.56 | 7.34 | 6.04 | 8.52 | – | – | – |
| CCC1=C[C@@H]2CN(C1)Cc1c([nH]c3ccccc13)[C@@](C(=O)OC)(c1cc3c(cc1OC)N(C)[C@H]1[C@@](O)(C(=O)OC)[C@H](OC(C)=O)[C@]4(CC)C=CCN5CC[C@]31[C@@H]54)C2 [Vinorelbine] | 6.49 | 5.66 | 6.42 | 6.65 | 5.23 | 7.41 | 9 | 7.83 | 5.34 | 5.97 | 8.24 | 7.88 | – | 8.65 | 7.91 | 8.08 | 7.97 | 7.37 | 7.88 | 8.05 |

Now from value to compound, other results behind:

| -log10 GI50 [4] | -log10 GI50 [5] | -log10 GI50 [6] | -log10 GI50 [7] | -log10 GI50 [8] | -log10 GI50 [9] | -log10 GI50 [10] | -log10 GI50 [12] | -log10 GI50 [17] | Structure (SMILES) | -log10 GI50 [1] | -log10 GI50 [2] | -log10 GI50 [3] | -log10 GI50 [11] | -log10 GI50 [13] | -log10 GI50 [14] | -log10 GI50 [15] | -log10 GI50 [16] | -log10 GI50 [18] | -log10 GI50 [19] | -log10 GI50 [20] |
| --- | --- | --- | --- | --- | --- | --- | --- | --- | --- | --- | --- | --- | --- | --- | --- | --- | --- | --- | --- | --- |
| 6.07 | 4.56 | 5.69 | 5.23 | 5.96 | 5.26 | 5.41 | 4.76 | 4.94 | COc1cc2c(Nc3ccc(NC(=O)c4ccccc4)cc3)ncnc2cc1OCCCN1CCOCC1 | < 4 | 5.82 | 5.02 | 6.35 | < 4.3 | 6.14 | 4.5 | 5.46 | 5.47 | – | – |
| < 4.18 | 5.34 | 4.54 | < 4.18 | 4.91 | 5.29 | 4.78 | 4.4 | 5.25 | O=C1NC(=O)/C(=C/c2ccc(-c3ccc(F)cc3O)o2)S1 | 5.19 | 4.88 | < 4.18 | 4.66 | 4.92 | 5.23 | – | 4.69 | 5.2 | 4.51 | 5.04 |
| < 3.78 | < 3.78 | 5.26 | 4.89 | 4.57 | 6.08 | 4.82 | 5.4 | 4.74 | COc1cc2ncnc(Nc3cccc(Cl)c3)c2cc1OC [AG1478] | 4.11 | 4.79 | 4.46 | – | 6.08 | 4.76 | < 3.78 | < 3.78 | < 3.78 | < 3.78 | < 3.78 |
| 4.88 | 4.64 | 4.62 | 5.14 | 5.5 | 4.17 | 5.25 | 5.49 | 6.31 | CCc1c2c(nc3ccc(OC(=O)N4CCC(N5CCCCC5)CC4)cc13)-c1cc3c(c(=O)n1C2)COC(=O)[C@]3(O)CC [CPT-11] | 4.71 | 5.83 | 4.84 | – | 5.34 | 5.37 | 4.99 | 5.87 | 5.44 | 4.88 | 5.82 |
| 6.6 | 5.92 | 5.59 | 6.49 | 7.29 | 6.48 | 6.63 | 6.9 | 7.37 | COc1cccc2c1C(=O)c1c(O)c3c(c(O)c1C2=O)C[C@@](O)(C(=O)CO)C[C@@H]3O[C@H]1C[C@H](N)[C@H](O)[C@H](C)O1 [Doxorubicin] | 6.69 | 7.03 | 6.58 | – | 6.73 | 6.77 | 6.51 | 7.01 | 6.87 | 6.71 | 6.67 |
| < 4.48 | < 4.48 | < 4.18 | < 4.48 | < 4.48 | < 4.48 | < 4.18 | < 4.48 | < 4.48 | CSCC[C@H](NC(=O)[C@H](Cc1ccccc1)NC[C@@H](NC[C@@H](N)CS)C(C)C)C(=O)O [FTase inhibitor I] | < 4.48 | < 4.48 | < 4.48 | < 4.48 | < 4.18 | 5 | – | 4.93 | < 4.18 | < 4.48 | < 4.48 |
| 4.08 | 4.04 | 3.38 | 3.37 | 3.2 | 4.69 | 3.4 | 3.66 | 3.48 | O=c1[nH]c(=O)n([C@H]2C[C@H](O)[C@@H](CO)O2)cc1F [Floxuridine] | 5.81 | 4.97 | 4.36 | 2.84 | 3.18 | 4.49 | – | 3.45 | 5.55 | 5.63 | 5.16 |
| 5.05 | < 4.18 | 5.21 | < 4.18 | 5.62 | < 4.18 | 4.65 | 4.33 | 4.82 | Cc1cncc2cccc(S(=O)(=O)N3CCCN(C(=O)CN)C[C@@H]3C)c12 [Glycyl H1152] | < 4.18 | 5.14 | < 4.48 | 5.96 | 5.15 | 5.76 | – | 5.1 | 4.81 | 6.28 | < 4.18 |
| 4.38 | 3.89 | 4.21 | 4.53 | 4.92 | 4.47 | 4.83 | 4.05 | 4.46 | CCCCCN(C)CCC(O)(P(=O)(O)O)P(=O)(O)O [Ibandronate sodium] | 3.67 | 3.74 | 3.82 | 3.94 | 4.29 | 4.37 | – | 4.47 | 4.16 | 3.9 | 3.84 |
